{
  "source": "patent US20250186405A1",
  "about": "“Compound For Use In Treating Narcolepsy” (Alkermes, Inc., priority 2023, published 2025)",
  "key": {"[1]": {"tested_on": "subjects with idiopathic hypersomnia (IH)", "experiment": "Part 6 IH: Karolinska Sleepiness Scale (KSS)", "format": "in vivo, human", "details": "for Change From Day −1 in Average Karolinska Sleepiness Scale, LSM difference vs placebo: N = 8; for Change From Day −1 in Average Karolinska Sleepiness Scale, LSM: N = 8, average of 1, 2, 4, 6, 8 h", "protocol": "At points within the study, subjects were asked to rate their sleepiness using the KSS with regard to the level of sleepiness they experienced over the past 5 minutes.\nThe KSS is a validated, self-reported outcome measure of subjective sleepiness. The KSS was developed as a one-dimensional measure of sleepiness and has been validated against assessments like EEG and electrooculography activity (Akerstedt and Gillberg 1990). The KSS is comprised of a single question that asks the subject to rate their sleepiness in the immediately preceding 5 minutes on a 9-point scale where 1=extremely alert and 9=very sleepy, great effort to keep awake, fighting sleep. The KSS takes approximately 10 to 15 seconds to complete. Thus, the KSS is well suited for repeated measurement at short intervals as it assesses situational sleepiness within a short timeframe.\nThe PD parameters in the POC evaluation (e.g., changes from baseline in sleep latency on MWT, number of errors on SART and level of sleepiness on KSS at matched time points) were summarized using descriptive statistics for each time point by dose level."}, "[2]": {"experiment": "Part 3 relative bioavailability (tablet vs powder-in-capsule) with food effect: plasma PK, 10 mg", "format": "in vivo, human", "details": "for increase of peak plasma concentration, fed vs fasted: 10 mg tablet; for AUC(0-inf) / half-life / Cmax / Tmax: human, plasma, oral", "protocol": "Part 3 compared the relative bioavailability (RelBA) of Compound A between a tablet formulation and the powder-in-capsule formulation. In addition, the food effect (FE) on the bioavailability of Compound A was assessed following administration of tablet formulation. Dose levels were as follows:\nThe Part 3 (RelBA with FE) evaluation was conducted using a 2-sequence, 3-period crossover study design in approximately 12 subjects. Subjects in Part 3 were randomized 1:1 to receive 1 of 2 sequences consisting of 3 periods with up to 72 hours of washout between treatments. The first 2 periods were dosed under fasted state and the third period was dosed in a fed state (high-fat meal).\nSequence 1 began with powder-in-capsule formulation in Period 1 (fasted), followed by tablet formulation in Period 2 (fasted) and tablet formulation in Period 3 (fed). Sequence 2 began with tablet formulation in Period 1 (fasted), followed by powder-in-capsule formulation in Period 2 (fasted) and tablet formulation in Period 3 (fed).\nIn treatment period(s) under the fed condition, following overnight fast, all subjects were given a high-fat breakfast. Within 30 minutes of starting the consumption of the breakfast, the assigned treatment was administered. […] There was a 72-hour washout period between the treatments.\nRelative bioavailability analysis: A mixed effects model was used to evaluate the effect of a tablet formulation on the PK of Compound A. The primary PK parameters, namely, Cmax, AUC0-t, and […], were logarithmically transformed and used as the dependent variable, with treatment (tablet formulation or powder-in-capsule) as a fixed effect, and subject as a random effect. The ratio of the geometric means of the 2 treatments was obtained from the analysis, and a 2-sided 90% CI for the ratio was estimated. In this comparison, the same dose level of Compound A administered under tablet formulation is the test and powder-in-capsule is the reference. Thus, the comparison of interest is as follows: Fasted in new formulation (Test) vs Fasted in powder-in-capsule (Reference).\nFood effect analysis: A mixed effects model was used to evaluate the effect of a high-fat, high caloric meal on the PK of Compound A in the tablet formulation. The primary PK parameters, namely, Cmax, AUC0-t, and AUC0-∞, were logarithmically transformed and used as the dependent variable, with treatment (fed or fasted) as a fixed effect, and subject as a random effect. The ratio of the geometric means of the 2 treatments was obtained from the analysis, and a 2-sided 90% CI for the ratio was estimated. In this comparison, the same dose level of Compound A administered under fed conditions is the test and Compound A administered under fasted conditions is the reference. Thus, the comparison of interest is as follows: Fed a high-fat meal in tablet formulation (Test) vs Fasted in tablet formulation (Reference).\nFood effect was studied following a high fat (cohort 1) and low fat (cohort 2) meal. Both cohorts were completed in independent studies. For cohort 1, a high-fat meal was served consisting of 800-1,000 total calories with 150 calories from protein, 250 calories from carbohydrates, 500-600 calories from fat (≥50 percent of calories from fat). For cohort 2, a low-fat meal was served consisting of 400-500 total calories with 100-125 calories from fat (25 percent of calories from fat)."}, "[3]": {"details": "10 mg, 10 mg Capsule (Fasted), Cohort 1, N = 9"}, "[4]": {"details": "10 mg, 10 mg Tablet (Fasted), Cohort 1, N = 8"}, "[5]": {"details": "10 mg, 10 mg Tablet (Fasted), Cohort 2"}, "[6]": {"details": "10 mg, 10 mg Tablet (Fasted), Cohort 2, N = 8"}, "[7]": {"details": "10 mg, 10 mg Tablet (Fed, high-fat), Cohort 1"}, "[8]": {"details": "10 mg, 10 mg Tablet (Fed, low-fat), Cohort 2"}, "[9]": {"details": "10 mg, 10 mg Tablet (Fed, low-fat), Cohort 2, N = 10"}},
  "data": [
    {"smiles": "CS(=O)(=O)N[C@H]1CCCN2C(=O)COc3ccccc3C3CCC(CC3)OCC12", "note": "(stereo partly drawn) [Compound A, N-[(4S,4aR,7α,10α)-1,2,3,4,4a,5,7,8,9,10,16,17-dodecahydro-17-oxo-7,10-ethanopyrido[1,2-d][1,7,4]benzodioxaazacyclotridecin-4-yl]methanesulfonamide]", "values": [
      {"measurement": "LS mean difference vs placebo in change from Day −1, average KSS", "setting": "[1]; 5 mg", "result": "−1.08"},
      {"measurement": "Change From Day −1 in Average Karolinska Sleepiness Scale, LSM difference vs placebo", "setting": "[1]; 5 mg", "result": "−1.08"},
      {"measurement": "Change From Day −1 in Average Karolinska Sleepiness Scale, LSM", "setting": "[1]; 5 mg", "result": "−1.60"},
      {"measurement": "LS mean difference vs placebo in change from Day −1, average KSS", "setting": "[1]; 12 mg", "result": "−0.80"},
      {"measurement": "Change From Day −1 in Average Karolinska Sleepiness Scale, LSM difference vs placebo", "setting": "[1]; 12 mg", "result": "−0.80"},
      {"measurement": "Change From Day −1 in Average Karolinska Sleepiness Scale, LSM", "setting": "[1]; 12 mg", "result": "−1.33"},
      {"measurement": "LS mean difference vs placebo in change from Day −1, average KSS", "setting": "[1]; 25 mg", "result": "−2.18"},
      {"measurement": "Change From Day −1 in Average Karolinska Sleepiness Scale, LSM difference vs placebo", "setting": "[1]; 25 mg", "result": "−2.18"},
      {"measurement": "Change From Day −1 in Average Karolinska Sleepiness Scale, LSM", "setting": "[1]; 25 mg", "result": "−2.70"},
      {"measurement": "increase of peak plasma concentration, fed vs fasted", "setting": "[2]; high-fat meal, Cohort 1", "result": 3, "unit": "fold"},
      {"measurement": "increase of peak plasma concentration, fed vs fasted", "setting": "[2]; low-fat meal, Cohort 2", "result": "approximately 2 fold"},
      {"measurement": "AUC0-∞ ratio (tablet/capsule)", "setting": "[2]; 10 mg, fasted", "result": 1.2},
      {"measurement": "Cmax ratio (tablet Cmax/capsule Cmax)", "setting": "[2]; 10 mg, fasted", "result": 0.9},
      {"measurement": "AUC(0-inf)", "setting": "[2]; [3]", "result": 124, "unit": "ng·h/mL"},
      {"measurement": "half-life", "setting": "[2]; [3]", "result": 648, "unit": "min"},
      {"measurement": "Cmax", "setting": "[2]; 10 mg, 10 mg Capsule (Fasted), Cohort 1, geometric mean", "result": 11.8, "unit": "ng/mL"},
      {"measurement": "Tmax", "setting": "[2]; 10 mg, 10 mg Capsule (Fasted), Cohort 1, median", "result": 2, "unit": "h"},
      {"measurement": "AUC(0-inf)", "setting": "[2]; [4]", "result": 144, "unit": "ng·h/mL"},
      {"measurement": "half-life", "setting": "[2]; [4]", "result": 660, "unit": "min"},
      {"measurement": "Cmax", "setting": "[2]; 10 mg, 10 mg Tablet (Fasted), Cohort 1, geometric mean", "result": 10.8, "unit": "ng/mL"},
      {"measurement": "Tmax", "setting": "[2]; 10 mg, 10 mg Tablet (Fasted), Cohort 1, median", "result": 3.5, "unit": "h"},
      {"measurement": "Cmax", "setting": "[2]; [5]", "result": 14.2, "unit": "ng/mL"},
      {"measurement": "Tmax", "setting": "[2]; [5]", "result": 2.5, "unit": "h"},
      {"measurement": "AUC(0-inf)", "setting": "[2]; [6]", "result": 189, "unit": "ng·h/mL"},
      {"measurement": "half-life", "setting": "[2]; [6]", "result": 553, "unit": "min"},
      {"measurement": "AUC(0-inf)", "setting": "[2]; [7]", "result": 140, "unit": "ng·h/mL"},
      {"measurement": "Cmax", "setting": "[2]; [7]", "result": 30.1, "unit": "ng/mL"},
      {"measurement": "half-life", "setting": "[2]; [7]", "result": 168, "unit": "min"},
      {"measurement": "Tmax", "setting": "[2]; 10 mg, 10 mg Tablet (Fed, high-fat), Cohort 1, median", "result": 3.5, "unit": "h"},
      {"measurement": "Cmax", "setting": "[2]; [8]", "result": 32.1, "unit": "ng/mL"},
      {"measurement": "Tmax", "setting": "[2]; [8]", "result": 3.01, "unit": "h"},
      {"measurement": "AUC(0-inf)", "setting": "[2]; [9]", "result": 180, "unit": "ng·h/mL"},
      {"measurement": "half-life", "setting": "[2]; [9]", "result": 581, "unit": "min"}
    ]}
  ]
}
